The record followed here is patent publication US20070059708A1, “Gene screen” (priority 2003, published 2007).

This assay deals with HT29 cells. Briefly: Optimisation of HT29 cell growth in butyrate as sole extraneous carbon source (cell counts). The format is cell-based, human. Conditions: HT29 colon carcinoma cells, DMEM without glucose, multiple concentrations compared. How it is done: We have compared the expression profiles of colon cells growing in either glucose or butyrate as a carbon source. HT 29 colon carcinoma cells were cultured in DMEM medium (Gibco) in the presence of 10% foetal calf serum, penicillin and streptomycin. Cells were either cultured in glucose alone as the sole carbon source, or in butyrate as the sole extraneous provided carbon source. […] Cells were cultured in either medium for multiple passages (typically 4). RNA was extracted from cells grown in each condition and used to probe an Affymetrix human 12 k array. The expression profile of cells cultured in each condition was compared and genes altered in expression by more than 2 fold are listed in Table 2.
HT29 cells were seeded out into 19 wells (in 6 well plates) at a cell density of 0.5×10^6 cells per well (i.e. 500 000 cells per well) deduced with the aid of a Haemocytometer (Improved Neubauer). These cells were taken from T75-0.2 mM butyrate (NaB) DMEM flasks and allowed to adhere to the 6-well plates over 72 hrs also in 0.2 mM NaB DMEM with FCS and Penicillin/Streptomycin antibiotics. […]

Regarding `CCCC(=O)[O-].[Na+]` [butyrate, Sodium Butyrate], the “butyrate concentration optimal for cell culture” value is reported as 2 mM.
